Results published in PubChem BioAssay AID248 (DTP/NCI, 2004).
Values joined by “and” are separate entries in the source; they are usually repeats but may differ in a detail not shown here. Equal entries are not always repeated. Toxic doses and inconclusive results are not listed.

Test system: L1210 leukemia ip in BDF1 mice, survival T/C
Assay: NCI In Vivo Anticancer Drug Screen. Data for tumor model L1210 Leukemia (intraperitoneal) in B6D2F1 (BDF1) mice
Settings: endpoint: mean survival time, higher = longer survival
Procedure, shortened: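 Value reflects the ratio of survival in compound-treated mice to survival in vehicle-treated controls, with both groups carrying the same transplanted tumor.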

[1] = dose: 100.0 mg/kg/injection, schedule: Q01DX001 (ip), vehicle: Klucel (hydroxypropylcellulose) (HPC)
[2] = dose: 100.0 mg/kg/injection, schedule: Q04DX003 (ip), vehicle: Klucel (hydroxypropylcellulose) (HPC)
[3] = dose: 200.0 mg/kg/injection, schedule: Q04DX003 (ip), vehicle: Klucel (hydroxypropylcellulose) (HPC)
[4] = dose: 50.0 mg/kg/injection, schedule: Q01DX009 (ip), vehicle: saline with Tween-80
[5] = dose: 100.0 mg/kg/injection, schedule: Q01DX009 (ip), vehicle: saline with Tween-80
[6] = dose: 200.0 mg/kg/injection, schedule: Q01DX009 (ip), vehicle: saline with Tween-80
[7] = dose: 100.0 mg/kg/injection, schedule: Q01DX009 (ip), vehicle: Klucel (hydroxypropylcellulose) (HPC)
[8] = dose: 200.0 mg/kg/injection, schedule: Q01DX009 (ip), vehicle: Klucel (hydroxypropylcellulose) (HPC)
[9] = dose: 400.0 mg/kg/injection, schedule: Q01DX009 (ip), vehicle: Klucel (hydroxypropylcellulose) (HPC)
[10] = dose: 400.0 mg/kg/injection, schedule: Q04DX003 (ip), vehicle: Klucel (hydroxypropylcellulose) (HPC)
[11] = dose: 100.0 mg/kg/injection, schedule: Q01DX009 (ip), vehicle: saline
[12] = dose: 100.0 mg/kg/injection, schedule: Q04DX003 (ip), vehicle: saline
[13] = dose: 200.0 mg/kg/injection, schedule: Q01DX009 (ip), vehicle: saline
[14] = dose: 200.0 mg/kg/injection, schedule: Q04DX003 (ip), vehicle: saline
[15] = dose: 400.0 mg/kg/injection, schedule: Q01DX009 (ip), vehicle: saline
[16] = dose: 400.0 mg/kg/injection, schedule: Q04DX003 (ip), vehicle: saline
[17] = dose: 100.0 mg/kg/injection, schedule: Q04DX003 (ip), vehicle: saline with Tween-80
[18] = dose: 200.0 mg/kg/injection, schedule: Q04DX003 (ip), vehicle: saline with Tween-80
[19] = dose: 400.0 mg/kg/injection, schedule: Q04DX003 (ip), vehicle: saline with Tween-80
[20] = dose: 100.0 mg/kg/injection, schedule: Q01DX001 (ip), vehicle: saline
[21] = dose: 200.0 mg/kg/injection, schedule: Q01DX001 (ip), vehicle: saline
[22] = dose: 400.0 mg/kg/injection, schedule: Q01DX001 (ip), vehicle: saline

With `Oc1ccc2ccccc2c1C=Nc1cccc(Cl)c1` the T/C (dose: 50.0 mg/kg/injection, schedule: Q04DX003 (ip), vehicle: Klucel (hydroxypropylcellulose) (HPC)) was 103 % of control, the T/C [1] was 113 % of control and the T/C [2] was 101 % of control. For the same compound, the T/C (dose: 200.0 mg/kg/injection, schedule: Q01DX001 (ip), vehicle: Klucel (hydroxypropylcellulose) (HPC)) was 107 % of control, the T/C [3] was 98 % of control and the T/C (dose: 400.0 mg/kg/injection, schedule: Q01DX001 (ip), vehicle: Klucel (hydroxypropylcellulose) (HPC)) was 101 % of control.

With `O=C(CNC(=O)Nc1ccc(Cl)c(Cl)c1)N/N=C/c1c(O)ccc2ccccc12` the T/C [4] was 93 % of control, the T/C [5] was 93 % of control and the T/C [6] was 91 % of control.

In the case of `CC1C(=O)OCC1C(c1ccccc1)(c1ccccc1)c1ccccc1` (stereo not given), the T/C (dose: 100.0 mg/kg/injection, schedule: Q04DX002 (ip), vehicle: gum acacia) is reported as 100 % of control, the T/C (dose: 200.0 mg/kg/injection, schedule: Q04DX002 (ip), vehicle: gum acacia) is reported as 103 % of control and the T/C (dose: 400.0 mg/kg/injection, schedule: Q04DX002 (ip), vehicle: gum acacia) is reported as 89 % of control.

`CC(=O)OCCCc1ccccc1` was tested, and the T/C [7] was 94 % of control, the T/C [2] was 98 % of control and the T/C [8] was 95 % of control. The T/C [3] was 97 % of control, the T/C [9] was 94 % of control and the T/C [10] was 94 % of control.

`CC(=O)C1(C)CC=CCC1C(=O)O` (stereo not given) was tested, and the T/C [11] was 107 % of control, the T/C [12] was 119 % of control and the T/C [13] was 116 % of control. For the same compound, the T/C [14] was 101 % of control, the T/C [15] was 107 % of control and the T/C [16] was 106 % of control.

`COC1=CC(=O)C(C2CC(=O)c3c(O)cc(OC4OC(COC5OC(C)C(O)C(O)C5O)C(O)C(O)C4O)cc3O2)=CC1=O` (stereo not given) was tested, and the T/C [11] was 95 % of control, the T/C [17] was 103 % of control and the T/C [13] was 97 % of control. For the same compound, the T/C [18] was 108 % of control, the T/C [15] was 88 % of control and the T/C [19] was 101 % of control.

`O=C(O)c1ccccc1C(=O)c1ccc(CBr)cc1` was tested, and the T/C (dose: 6.25 mg/kg/injection, schedule: Q01DX009 (ip), vehicle: saline with Tween-80) was 92 % of control, the T/C (dose: 12.5 mg/kg/injection, schedule: Q01DX009 (ip), vehicle: saline with Tween-80) was 104 % of control and the T/C (dose: 25.0 mg/kg/injection, schedule: Q01DX009 (ip), vehicle: saline with Tween-80) was 97 % of control.

In the case of `CCOC(=O)c1cnc(SC)nc1Nc1ccc([N+](=O)[O-])cc1`, the T/C (dose: 25.0 mg/kg/injection, schedule: Q01DX001 (ip), vehicle: Klucel (hydroxypropylcellulose) (HPC)) is reported as 91 % of control, the T/C (dose: 50.0 mg/kg/injection, schedule: Q01DX001 (ip), vehicle: Klucel (hydroxypropylcellulose) (HPC)) is reported as 89 % of control and the T/C [1] is reported as 90 % of control.

For `O=Cc1ccc(C(=O)O)cc1O`, the T/C [17] was 98 % of control and the T/C [18] was 102 % of control.

For `CCOc1nc(N)nc2c1-c1ccccc1CC2`, the T/C [17] was 97 % of control, the T/C [18] was 97 % of control and the T/C [19] was 90 % of control.

With `COC1OC(CO)C(O)C(OC)C1NC(C)=O` (stereo not given) the T/C [20] was 103 % of control, the T/C [21] was 106 % of control and the T/C [22] was 101 % of control.

In the case of `OCC1OC(n2cnc3c2ncn2nnnc32)C(O)C1O` (stereo not given), the T/C (dose: 100.0 mg/kg/injection, schedule: Q01DX005 (ip), vehicle: saline) is reported as 100 % of control and the T/C (dose: 200.0 mg/kg/injection, schedule: Q01DX005 (ip), vehicle: saline) is reported as 110 % of control.

With `CC(=O)Nc1cc(Cl)cc2c1-c1ccc(Cl)cc1C2N(C)C` (stereo not given) the T/C (dose: 50.0 mg/kg/injection, schedule: Q01DX001 (ip), vehicle: carboxymethylcellulose (CMC)) was 98 % of control, the T/C (dose: 100.0 mg/kg/injection, schedule: Q01DX001 (ip), vehicle: carboxymethylcellulose (CMC)) was 90 % of control and the T/C (dose: 200.0 mg/kg/injection, schedule: Q01DX001 (ip), vehicle: carboxymethylcellulose (CMC)) was 106 % of control. The T/C (dose: 400.0 mg/kg/injection, schedule: Q01DX001 (ip), vehicle: carboxymethylcellulose (CMC)) was 98 % of control.

With `CCOC(=O)c1cnc(C)nc1Nc1ccccc1F` the T/C [2] was 105 % of control and the T/C [3] was 104 % of control.

For `CCCCCCCCC(=O)NCCCOC`, the T/C [7] was 108 % of control, the T/C [2] was 96 % of control and the T/C [8] was 111 % of control. For the same compound, the T/C [3] was 91 % of control, the T/C [9] was 97 % of control and the T/C [10] was 91 % of control.

With `CC(C)NC(=O)/C=C/C(=O)O` the T/C [11] was 92 % of control, the T/C [13] was 95 % of control and the T/C [15] was 92 % of control.

In the case of `O=C1CC23CCC12CCCC3=O` (stereo not given), the T/C (dose: 100.0 mg/kg/injection, schedule: Q04DX002 (ip), vehicle: saline with Tween-80) is reported as 100 % of control, the T/C (dose: 200.0 mg/kg/injection, schedule: Q04DX002 (ip), vehicle: saline with Tween-80) is reported as 93 % of control and the T/C (dose: 400.0 mg/kg/injection, schedule: Q04DX002 (ip), vehicle: saline with Tween-80) is reported as 97 % of control.

In the case of `CC(C)(Oc1ccc(Cl)cc1)C(=O)O` (tested in a mixture with another compound), the T/C [12] is reported as 94 % of control, the T/C [14] is reported as 91 % of control and the T/C [16] is reported as 91 % of control.

In the case of `N#C/C(=C\c1ccncc1)c1cccc2ccccc12`, the T/C [2] is reported as 114 % of control, the T/C [3] is reported as 96 % of control and the T/C [10] is reported as 97 % of control.

`CN(C)c1ccc(-c2c3cc(O)c(=O)cc-3oc3cc(O)c(O)cc23)cc1` was tested, and the T/C (dose: 50.0 mg/kg/injection, schedule: Q04DX003 (ip), vehicle: saline with Tween-80) was 95 % of control, the T/C [17] was 90 % of control and the T/C [18] was 87 % of control.

For `COC1=C(N2CC2)C(=O)C(OC)=C(N2CC2)C1=O`, the T/C (dose: 0.5 mg/kg/injection, schedule: Q01DX009 (ip), vehicle: carboxymethylcellulose (CMC)) was 114 % of control, the T/C (dose: 1.0 mg/kg/injection, schedule: Q01DX009 (ip), vehicle: carboxymethylcellulose (CMC)) was 124 % of control and the T/C (dose: 3.0 mg/kg/injection, schedule: Q01DX009 (ip), vehicle: carboxymethylcellulose (CMC)) was 121 % of control.

In the case of `CC[NH-].[Cl][Pt+2][Cl].[NH2-]`, the T/C (dose: 0.37 mg/kg/injection, schedule: Q01DX009 (ip), vehicle: other) is reported as 111 % of control, the T/C (dose: 0.75 mg/kg/injection, schedule: Q01DX001 (ip), vehicle: other) is reported as 107 % of control and the T/C (dose: 0.75 mg/kg/injection, schedule: Q01DX009 (ip), vehicle: other) is reported as 114 % of control. The T/C (dose: 1.5 mg/kg/injection, schedule: Q01DX001 (ip), vehicle: other) was 111 % of control, the T/C (dose: 3.0 mg/kg/injection, schedule: Q01DX001 (ip), vehicle: other) was 114 % of control and the T/C (dose: 3.0 mg/kg/injection, schedule: Q01DX009 (ip), vehicle: other) was 157 % of control.

With `CCOC(C)(NCc1ccccc1)OCC` the T/C (dose: 25.0 mg/kg/injection, schedule: Q04DX002 (ip), vehicle: Klucel (hydroxypropylcellulose) (HPC)) was 86 % of control and the T/C (dose: 50.0 mg/kg/injection, schedule: Q04DX002 (ip), vehicle: Klucel (hydroxypropylcellulose) (HPC)) was 111 % of control.

`Cc1c[n+](=O)c(C)cn1[O-]` was tested, and the T/C [20] was 97 % of control, the T/C [21] was 100 % of control and the T/C [22] was 103 % of control.

For `CNC(=O)C1=Cc2cc(Cl)ccc2OC1`, the T/C (dose: 75.0 mg/kg/injection, schedule: Q04DX003 (ip), vehicle: saline with Tween-80) was 98 % of control, the T/C (dose: 150.0 mg/kg/injection, schedule: Q04DX003 (ip), vehicle: saline with Tween-80) was 92 % of control and the T/C (dose: 300.0 mg/kg/injection, schedule: Q04DX003 (ip), vehicle: saline with Tween-80) was 95 % of control.

With `CC(N)CC(C)(C)N` (stereo not given) the T/C (dose: 50.0 mg/kg/injection, schedule: Q04DX003 (ip), vehicle: saline) was 90 % of control, the T/C [12] was 91 % of control and the T/C [14] was 90 % of control.

`CC(C)(C#N)NC(=O)NC(C)(C)C#N` was tested, and the T/C [4] was 101 % of control, the T/C [5] was 97 % of control and the T/C [6] was 97 % of control.

With `N#CCC1=Cc2ccccc2CC1` the T/C (dose: 6.25 mg/kg/injection, schedule: Q01DX005 (ip), vehicle: saline) was 109 % of control, the T/C (dose: 12.5 mg/kg/injection, schedule: Q01DX005 (ip), vehicle: saline) was 102 % of control and the T/C (dose: 25.0 mg/kg/injection, schedule: Q01DX005 (ip), vehicle: saline) was 102 % of control. For the same compound, the T/C (dose: 50.0 mg/kg/injection, schedule: Q01DX005 (ip), vehicle: saline) was 106 % of control and 107 % of control.
